This data set in a line: On-resin head-to-side-chain macrolactonisation with cyclative cleavage: free Tyr phenol attacks the C-terminal N-acyl-MeNbz (N-acyl-N'-methylurea) resin, 10% DIEA, giving the Tyr phenyl ester. The conditions noted are these: the molecule shown is the open-chain precursor, DCM (models 1-4, rt; 1 and 4 retried in DMF at 60 C), DMF (BPC822, 60 C), scale: 1=cyclic product detected, 0=not detected.

Structures are written as SMILES.

`CCCCCC(=O)N[C@@H](Cc1ccc(O)cc1)C(=O)N[C@@H](C)C(=O)N[C@@H](CC(C)C)C(=O)N1CCC[C@H]1C(=O)N[C@@H](Cc1ccccc1)C(=O)N[C@H](C(=O)N[C@H](C(=O)NCC(=O)n1c(=O)n(C)c2ccc(C(=O)NCC(N)=O)cc21)C(C)C)[C@@H](C)CC` showed a ring closure, product found (29-membered ring) of 1.
`CC[C@H](C)[C@H](NC(=O)[C@@H](Cc1ccc(OC(C)(C)C)cc1)NC(=O)[C@H](CCC(=O)NC(c1ccccc1)(c1ccccc1)c1ccccc1)NC(=O)[C@@H]1CCCN1C(=O)[C@@H](NC(=O)[C@H](CCC(=O)OC(C)(C)C)NC(=O)[C@@H](NC(=O)[C@H](Cc1ccc(O)cc1)NC(=O)OC(C)(C)C)[C@@H](C)OC(C)(C)C)C(C)C)C(=O)n1c(=O)n(C)c2ccc(C(=O)NCC(N)=O)cc21` had a ring closure, product found (29-membered ring, 0.5 h) of 1.
`CCCCCC(=O)N[C@@H](Cc1ccc(O)cc1)C(=O)NCC(=O)N[C@@H](Cc1ccccc1)C(=O)N[C@@H](C)C(=O)N1CCC[C@H]1C(=O)N[C@@H](C)C(=O)N[C@H](C(=O)N[C@H](C(=O)NCC(=O)n1c(=O)n(C)c2ccc(C(=O)NCC(N)=O)cc21)C(C)C)[C@@H](C)CC` displayed a ring closure, product found (32-membered ring) of 0.
For `CCCCCC(=O)N[C@@H](Cc1ccc(O)cc1)C(=O)N[C@@H](CC(C)C)C(=O)N1CCC[C@H]1C(=O)N[C@@H](Cc1ccccc1)C(=O)N[C@H](C(=O)N[C@H](C(=O)NCC(=O)n1c(=O)n(C)c2ccc(C(=O)NCC(N)=O)cc21)C(C)C)[C@@H](C)CC`, the ring closure, product found (26-membered ring) turned out to be 1.
For `CCCCCC(=O)N[C@@H](Cc1ccc(O)cc1)C(=O)N1CCC[C@H]1C(=O)N[C@@H](Cc1ccccc1)C(=O)N[C@H](C(=O)N[C@H](C(=O)NCC(=O)n1c(=O)n(C)c2ccc(C(=O)NCC(N)=O)cc21)C(C)C)[C@@H](C)CC`, the ring closure, product found (23-membered ring) was 0.
